According to patent publication US12318373B2, “Methods of treating gastrointestinal stromal tumors” (Deciphera Pharmaceuticals, LLC, priority 2019, dated 2025):

Test system: GIST patients
Experiment: Example 3: safety, TEAEs in GIST patients at ≥100 mg daily
Type: in vivo, human
Experimental: Grade 3 or 4 treatment-emergent adverse events (TEAEs) in >5% of patients were lipase increased (18%; n=33), anemia (11%; n=20), hypertension (7%; n=13) and abdominal pain (6%; n=11). 13% of patients (n=24) experienced TEAEs leading to study treatment discontinuation, 17% of patients (n=31) experienced TEAEs leading to dose reduction and 49% of patients (n=88) had TEAEs leading to study drug interruption. Table 3 lists TEAEs>10% for GIST patients treated with ≥100 mg of ripretinib daily.

[1] = 1st column pair, head not printed (likely Grade 1/2)
[2] = 3rd column pair, head not printed (likely all grades)

CCn1c(=O)c(-c2cc(NC(=O)Nc3ccccc3)c(F)cc2Br)cc2cnc(NC)cc21 [ripretinib]
Patients with TEAEs leading to dose reduction, %: 17%
Patients with TEAEs leading to dose reduction, number: 31
Patients with TEAEs leading to study drug interruption, %: 49%
Patients with TEAEs leading to study drug interruption, number: 88
Patients with TEAEs leading to study treatment discontinuation, %: 13%
Patients with TEAEs leading to study treatment discontinuation, number: 24
Abdominal pain: patients, % [1]: (18%)
Abdominal pain: patients, number [1]: 33
Actinic keratosis: patients, % [1]: (14%)
Actinic keratosis: patients, number [1]: 25
Alopecia: patients, % [1]: (57%)
Alopecia: patients, number [1]: 102
Amylase increased: patients, % [1]: (11%)
Amylase increased: patients, number [1]: 19
Anemia: patients, % [1]: (10%)
Anemia: patients, number [1]: 18
Arthralgia: patients, % [1]: (22%)
Arthralgia: patients, number [1]: 40
Back Pain: patients, % [1]: (17%)
Back Pain: patients, number [1]: 30
Blood bilirubin increase: patients, % [1]: (9%)
Blood bilirubin increase: patients, number [1]: 16
Blood creatine phosphokinase increased: patients, % [1]: (7%)
Blood creatine phosphokinase increased: patients, number [1]: 13
Constipation: patients, % [1]: (37%)
Constipation: patients, number [1]: 67
Cough: patients, % [1]: (21%)
Cough: patients, number [1]: 37
Decreased appetite: patients, % [1]: (34%)
Decreased appetite: patients, number [1]: 60
Diarrhea: patients, % [1]: (28%)
Diarrhea: patients, number [1]: 50
Dizziness: patients, % [1]: (16%)
Dizziness: patients, number [1]: 29
Dry skin: patients, % [1]: (21%)
Dry skin: patients, number [1]: 37
Dysgeusia: patients, % [1]: (11%)
Dysgeusia: patients, number [1]: 20
Dyspnea: patients, % [1]: (18%)
Dyspnea: patients, number [1]: 32
Fatigue: patients, % [1]: (53%)
Fatigue: patients, number [1]: 94
Headache: patients, % [1]: (18%)
Headache: patients, number [1]: 33
Hypertension: patients, % [1]: (14%)
Hypertension: patients, number [1]: 25
Hypokalaemia: patients, % [1]: (12%)
Hypokalaemia: patients, number [1]: 21
Hypomagnesaemia: patients, % [1]: (10%)
Hypomagnesaemia: patients, number [1]: 18
Hypophosphataemia: patients, % [1]: (10%)
Hypophosphataemia: patients, number [1]: 17
Insomnia: patients, % [1]: (12%)
Insomnia: patients, number [1]: 21
Lipase increased: patients, % [1]: (10%)
Lipase increased: patients, number [1]: 18
Muscle spasms: patients, % [1]: (26%)
Muscle spasms: patients, number [1]: 47
Myalgia: patients, % [1]: (44%)
Myalgia: patients, number [1]: 79
Nausea: patients, % [1]: (43%)
Nausea: patients, number [1]: 77
Pain in extremity: patients, % [1]: (10%)
Pain in extremity: patients, number [1]: 18
Palmar-plantar erythrodysaesthesia syndrome: patients, % [1]: (40%)
Palmar-plantar erythrodysaesthesia syndrome: patients, number [1]: 71
Pruritus: patients, % [1]: (10%)
Pruritus: patients, number [1]: 18
Rash maculo-papular: patients, % [1]: (10%)
Rash maculo-papular: patients, number [1]: 18
Rash: patients, % [1]: (15%)
Rash: patients, number [1]: 27
Seborrhoeic keratosis: patients, % [1]: (12%)
Seborrhoeic keratosis: patients, number [1]: 21
Skin papilloma: patients, % [1]: (10%)
Skin papilloma: patients, number [1]: 17
Upper respiratory tract infection: patients, % [1]: (10%)
Upper respiratory tract infection: patients, number [1]: 18
Urinary tract infection: patients, % [1]: (9%)
Urinary tract infection: patients, number [1]: 16
Vision blurred: patients, % [1]: (10%)
Vision blurred: patients, number [1]: 17
Vomiting: patients, % [1]: (24%)
Vomiting: patients, number [1]: 42
Weight decreased: patients, % [1]: (29%)
Weight decreased: patients, number [1]: 51
Abdominal pain: patients, % [2]: (25%)
Abdominal pain: patients, number [2]: 44
Actinic keratosis: patients, % [2]: (14%)
Actinic keratosis: patients, number [2]: 25
Alopecia: patients, % [2]: (57%)
Alopecia: patients, number [2]: 102
Amylase increased: patients, % [2]: (12%)
Amylase increased: patients, number [2]: 21
Anemia: patients, % [2]: (21%)
Anemia: patients, number [2]: 38
Arthralgia: patients, % [2]: (22%)
Arthralgia: patients, number [2]: 40
Back Pain: patients, % [2]: (18%)
Back Pain: patients, number [2]: 32
Blood bilirubin increase: patients, % [2]: (12%)
Blood bilirubin increase: patients, number [2]: 21
Blood creatine phosphokinase increased: patients, % [2]: (10%)
Blood creatine phosphokinase increased: patients, number [2]: 18
Constipation: patients, % [2]: (37%)
Constipation: patients, number [2]: 67
Cough: patients, % [2]: (21%)
Cough: patients, number [2]: 37
Decreased appetite: patients, % [2]: (35%)
Decreased appetite: patients, number [2]: 62
Diarrhea: patients, % [2]: (30%)
Diarrhea: patients, number [2]: 53
Dizziness: patients, % [2]: (16%)
Dizziness: patients, number [2]: 29
Dry skin: patients, % [2]: (21%)
Dry skin: patients, number [2]: 37
Dysgeusia: patients, % [2]: (11%)
Dysgeusia: patients, number [2]: 20
Dyspnea: patients, % [2]: (20%)
Dyspnea: patients, number [2]: 36
Fatigue: patients, % [2]: (55%)
